Results as given in the supplement of paper PMC10307832.

compound: C[C@]1(c2nc3c(C(N)=O)cccc3[nH]2)CCCN1 [Veliparib] + O=C(c1cc(Cc2n[nH]c(=O)c3ccccc23)ccc1F)N1CCN(C(=O)C2CC2)CC1 [Olaparib] (partner 8 µM); assay: relative viability (nuclei count vs DMSO), 5 days (fraction); higher = more cells survive; conditions: first compound 0.02 µM
In short: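 One day after seeding in 1536-well plates, lung cancer cell lines were dosed by pin tool. Dosing was either single-drug or a fixed anchor-drug dose plus five library-drug doses (not always all listed) in √10 steps. After 5 days, nuclei were stained in one fix-and-stain step and counted on 4× images, and relative viability is the nuclei count of treated wells over that of vehicle wells, given as the median of duplicate plates.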

Cell Line | relative viability
NCI-H2342 | 0.383
LU99A | 0.252
NCI-H1975 | 0.77
H3255 | 0.544
NCI-H2023 | 0.486
NCI-H2405 | 0.927
SK-LU-1 | 0.492
NCI-H1437 | 0.688
NCI-H596 | 0.832
HCC-15 | 0.756
NCI-H460 | 0.427
EMC-BAC-2 | 0.539
IA-LM | 0.896
NCI-H2009 | 0.672
COR-L 105 | 0.689
NCI-H1395 | 0.435
NCI-H520 | 0.352
NCI-H1648 | 0.948
NCI-H358 | 0.673
HCC-78 | 0.755
EBC-1 | 0.748
NCI-H1299 | 1.03

Cell Line | relative viability
NCI-H1650 | 0.918
LK-2 | 0.696
PC-14 | 0.342
LXF-289 | 1
LC-2-ad | 0.744
A549 | 0.308
NCI-H1651 | 0.172
COR-L23 | 0.376
HCC-827 | 0.629
NCI-H522 | 0.678
LCLC-103H | 0.753
RERF-LC-KJ | 1.03
NCI-H3122 | 0.628
BEN | 0.799
UMC-11 | 0.627
LCLC-97TM1 | 0.433
NCI-H2085 | 0.789
A-427 | 0.575
NCI-H727 | 0.601
NCI-H838 | 0.852
NCI-H1793 | 0.954
201T | 0.809

Cell Line | relative viability
NCI-H2228 | 0.807
LOU-NH91 | 0.882
NCI-H1666 | 0.777
NCI-H650 | 0.355
NCI-H1703 | 0.514
ChaGo-K-1 | 0.362
Calu-6 | 0.646
HCC-44 | 1.02
NCI-H647 | 0.657
NCI-H2126 | 0.905
NCI-H1755 | 0.821
PC-3 [JPC-3] | 1.17
NCI-H1792 | 0.693
NCI-H2087 | 0.648
NCI-H441 | 0.691
NCI-H2170 | 0.573
NCI-H2347 | 0.587
HARA | 0.931
NCI-H1355 | 0.656
NCI-H1915 | 0.252
SK-MES-1 | 0.931

same assay, conditions: first compound 0.06325 µM

Cell Line | relative viability
NCI-H2342 | 0.461
LU99A | 0.266
NCI-H1975 | 0.745
H3255 | 0.61
NCI-H2023 | 0.477
SK-LU-1 | 0.415
NCI-H1734 | 0.577
NCI-H1437 | 0.624
NCI-H596 | 0.587
HCC-15 | 0.649
NCI-H460 | 0.316
EMC-BAC-2 | 0.427
IA-LM | 0.702
NCI-H2009 | 0.652
COR-L 105 | 0.519
NCI-H1395 | 0.395
NCI-H520 | 0.329
NCI-H358 | 0.739
HCC-78 | 0.745
EKVX | 0.911
EBC-1 | 0.622
NCI-H1299 | 0.949
NCI-H1650 | 0.679

Cell Line | relative viability
EPLC-272H | 0.764
LK-2 | 0.629
PC-14 | 0.326
LXF-289 | 1.04
LC-2-ad | 0.68
A549 | 0.375
SW 900 | 0.724
NCI-H1651 | 0.197
COR-L23 | 0.247
HCC-827 | 0.634
NCI-H522 | 0.593
LCLC-103H | 0.74
RERF-LC-KJ | 0.795
NCI-H3122 | 0.571
BEN | 1.15
UMC-11 | 0.336
LCLC-97TM1 | 0.475
NCI-H2085 | 0.776
A-427 | 0.697
NCI-H727 | 0.549
NCI-H838 | 0.729
NCI-H1793 | 0.976
201T | 0.906

Cell Line | relative viability
NCI-H2228 | 0.58
LOU-NH91 | 0.901
NCI-H1666 | 0.711
NCI-H650 | 0.329
NCI-H1703 | 0.292
ChaGo-K-1 | 0.447
Calu-6 | 0.565
NCI-H1993 | 1.05
HCC-44 | 0.924
NCI-H647 | 0.465
NCI-H2126 | 0.925
NCI-H1755 | 0.798
NCI-H1792 | 0.311
NCI-H2087 | 0.484
NCI-H441 | 0.637
HOP-62 | 0.347
NCI-H2170 | 0.587
NCI-H2347 | 0.549
NCI-H1355 | 0.69
NCI-H1915 | 0.238
SK-MES-1 | 0.748

same assay, conditions: first compound 0.2 µM

Cell Line | relative viability
NCI-H2342 | 0.469
LU99A | 0.257
NCI-H1975 | 0.788
H3255 | 0.534
NCI-H2023 | 0.439
NCI-H2405 | 0.888
SK-LU-1 | 0.491
NCI-H1734 | 0.666
NCI-H1437 | 0.616
ABC-1 | 0.8
NCI-H596 | 0.75
HCC-15 | 0.726
NCI-H460 | 0.489
EMC-BAC-2 | 0.483
IA-LM | 0.743
NCI-H2009 | 0.682
COR-L 105 | 0.732
NCI-H1395 | 0.448
NCI-H520 | 0.332
NCI-H358 | 0.662
HCC-78 | 0.82
EKVX | 0.889
EBC-1 | 0.731
NCI-H1299 | 0.925

Cell Line | relative viability
NCI-H1650 | 0.729
EPLC-272H | 1.05
LK-2 | 0.659
PC-14 | 0.368
LXF-289 | 1.01
LC-2-ad | 0.662
A549 | 0.223
SW 900 | 0.939
NCI-H1651 | 0.183
COR-L23 | 0.329
HCC-827 | 0.561
NCI-H522 | 0.667
LCLC-103H | 0.826
RERF-LC-KJ | 0.814
NCI-H3122 | 0.549
BEN | 1.12
UMC-11 | 0.485
LCLC-97TM1 | 0.439
NCI-H2085 | 0.779
A-427 | 0.78
NCI-H727 | 0.739
NCI-H838 | 0.802
NCI-H1793 | 0.827
201T | 0.852

Cell Line | relative viability
NCI-H2228 | 0.913
LOU-NH91 | 0.978
NCI-H1666 | 0.82
NCI-H650 | 0.383
NCI-H1703 | 0.397
ChaGo-K-1 | 0.429
Calu-6 | 0.606
NCI-H1993 | 1.2
HCC-44 | 0.975
NCI-H647 | 0.659
NCI-H2126 | 0.913
NCI-H1755 | 0.877
PC-3 [JPC-3] | 1.22
NCI-H1792 | 0.68
NCI-H2087 | 0.642
NCI-H441 | 0.573
HOP-62 | 0.364
NCI-H2170 | 0.58
NCI-H2347 | 0.597
HARA | 0.857
NCI-H1355 | 0.764
NCI-H1915 | 0.243
SK-MES-1 | 0.77

same assay, conditions: first compound 0.6325 µM

Cell Line | relative viability
NCI-H2342 | 0.41
LU99A | 0.265
NCI-H1975 | 0.748
H3255 | 0.567
NCI-H2023 | 0.446
NCI-H2405 | 0.872
SK-LU-1 | 0.364
NCI-H1734 | 0.567
NCI-H1437 | 0.653
ABC-1 | 0.874
NCI-H596 | 0.7
HCC-15 | 0.686
NCI-H460 | 0.434
EMC-BAC-2 | 0.455
IA-LM | 0.678
NCI-H2009 | 0.672
COR-L 105 | 0.608
NCI-H1395 | 0.415
NCI-H520 | 0.366
NCI-H1648 | 0.7
NCI-H358 | 0.564
HCC-78 | 0.742
EKVX | 0.72
EBC-1 | 0.655

Cell Line | relative viability
NCI-H1299 | 0.963
NCI-H1650 | 0.707
EPLC-272H | 0.733
LK-2 | 0.757
PC-14 | 0.38
LXF-289 | 0.986
LC-2-ad | 0.756
A549 | 0.314
SW 900 | 0.722
NCI-H1651 | 0.173
COR-L23 | 0.295
HCC-827 | 0.585
NCI-H522 | 0.57
LCLC-103H | 0.75
RERF-LC-KJ | 0.881
NCI-H3122 | 0.619
BEN | 0.92
UMC-11 | 0.359
LCLC-97TM1 | 0.233
NCI-H2085 | 0.708
A-427 | 0.656
NCI-H727 | 0.665
NCI-H838 | 0.702
NCI-H1793 | 0.851

Cell Line | relative viability
201T | 0.824
NCI-H2228 | 0.541
LOU-NH91 | 0.876
NCI-H1666 | 0.771
NCI-H650 | 0.431
NCI-H1703 | 0.56
ChaGo-K-1 | 0.387
Calu-6 | 0.491
NCI-H1993 | 1.03
HCC-44 | 0.932
NCI-H647 | 0.505
NCI-H2126 | 0.927
NCI-H1755 | 0.881
PC-3 [JPC-3] | 1.06
NCI-H1792 | 0.411
NCI-H2087 | 0.589
NCI-H441 | 0.598
HOP-62 | 0.342
NCI-H2170 | 0.586
NCI-H2347 | 0.586
HARA | 0.858
NCI-H1355 | 0.678
NCI-H1915 | 0.251
SK-MES-1 | 0.632

same assay, conditions: first compound 2 µM

Cell Line | relative viability
NCI-H2342 | 0.474
LU99A | 0.31
NCI-H1975 | 0.776
H3255 | 0.553
NCI-H2023 | 0.439
NCI-H2405 | 0.939
SK-LU-1 | 0.424
NCI-H1734 | 0.691
NCI-H1437 | 0.661
ABC-1 | 0.586
NCI-H596 | 0.738
HCC-15 | 0.706
NCI-H460 | 0.425
EMC-BAC-2 | 0.495
IA-LM | 0.74
NCI-H2009 | 0.763
COR-L 105 | 0.731
NCI-H1395 | 0.471
NCI-H520 | 0.358
NCI-H1648 | 0.919
NCI-H358 | 0.597
HCC-78 | 0.806
EKVX | 0.867
EBC-1 | 0.756
NCI-H1299 | 1.03
NCI-H1650 | 0.757
EPLC-272H | 0.715

Cell Line | relative viability
LK-2 | 0.85
PC-14 | 0.204
LXF-289 | 1.16
LC-2-ad | 0.681
A549 | 0.407
SW 900 | 0.818
NCI-H1651 | 0.183
COR-L23 | 0.355
HCC-827 | 0.615
NCI-H522 | 0.566
LCLC-103H | 0.745
RERF-LC-KJ | 0.85
NCI-H3122 | 0.623
BEN | 1
UMC-11 | 0.438
LCLC-97TM1 | 0.527
NCI-H2085 | 0.734
A-427 | 0.737
NCI-H727 | 0.748
NCI-H838 | 0.764
NCI-H1793 | 1.01
201T | 0.83
NCI-H2228 | 0.754
LOU-NH91 | 0.95
NCI-H1666 | 0.778
NCI-H650 | 0.378
NCI-H1703 | 0.501
